Assays:
[1] = tested on: ventricular tachycardia and ventricular fibrillation; conditions: cited from earlier work
[2] = Study of compositions of compound A and its salt under moisture and heat; type: physicochemical; conditions: condition of moisture and heat
Description: Accordingly, the present application provides an anti-arrhythmic pharmaceutical composition with high stability and rapid dissolution, and a preparation method thereof.

In the case of `COc1cc2c(cc1OCc1ccccc1)C(Cc1cccc(NS(C)(=O)=O)c1)NCC2` (stereo not drawn) [compound A, 1-(3-methanesulfonamidobenzyl)-6-methoxy, 7-benzyloxy-1,2,3,4-tetrahydroisoquinoline], the “effect on ventricular tachycardia and ventricular fibrillation” value [1] is listed as “effective”, the action potential duration ([1]; class III anti-arrhythmic drug) is listed as “can prolong” and the “stability of the drug in a pharmaceutical composition” value [2] is listed as “decomposed”.

Source: patent US12622902B2, “Anti-arrhythmic pharmaceutical composition and preparation method therefor” (JIANGSU KANION PHARMACEUTICAL CO., LTD., priority 2020, dated 2026)
